Our source for the mass density values is the NIST ThermoML archive (doi:10.1016/j.jct.2018.09.003).

For the data set the following is noted: 101.33 kPa, Liquid, Vibrating tube method.

± gives the expanded uncertainty stated by the source.

What is called mass density is the mass of a sample divided by its volume. In the case of `CCCCCCCCn1cc[n+](C)c1C.F[B-](F)(F)F` [1-octyl-2,3-dimethylimidazolium tetrafluoroborate], the mass density (313.15 K) was found to be 1092.3 ± 2.5 kg/m3; the mass density (323.15 K) turned out to be 1086 ± 2.5 kg/m3; the mass density (333.15 K) is reported as 1079.7 ± 2.5 kg/m3; the mass density (343.15 K) was 1073.3 ± 2.5 kg/m3; the mass density (353.15 K) was determined as 1067 ± 2.5 kg/m3.
